Assay results taken from patent US4086350A, “Pharmaceutical compositions and method of producing anti-psychotic activity without extrapyramidal symptoms” (priority 1975, dated 1978).
Like-named read-outs stand apart in the source and are kept apart here.

Experiments:
[1] = test system: amphetamine-induced rotation vs. avoidance acquisition; experiment: R/A ratio: ED50 amphetamine-induced rotation / ED50 avoidance acquisition; assay type: in vivo, rat
Method: (§1) To predict the potential ability of a drug to cause EPS, the ratio of its ED50 (i.p.) for antagonism of amphetamine-induced rotation to its ED50 (i.p.) for blockade of shock avoidance acquisition in the rat, a procedure for assessing antipsychotic activity, (R/A ratio) is calculated.

[2] = test system: striatal dopamine receptors; experiment: Antagonism of amphetamine-induced rotation in rats with unilateral substantia nigra lesions (Ungerstedt); assay type: in vivo, rat; settings: i.p.
Description: There is evidence that antipsychotic drugs cause EPS by interfering with neurotransmission in a nigrostriatal dopaminergic pathway. It is thought that they block dopamine receptors in the neostriatum. Therefore, the ability of a drug to block striatal dopamine receptors is a measure of its EPS liability.
To assess the potency of drugs in blocking striatal dopamine receptors a procedure was used which was developed by Ungerstedt [Ungerstedt and Arbuthnott, Brain Res. 24 485 (1970); Ungerstedt, Acta physiol. scand., Suppl. 367, 49 (1971)] using rats with unilateral lesions of the substantia nigra induced by injection of 6-hydroxydopamine. This treatment causes degeneration of the nigrostriatal dopaminergic pathway accompanied by a marked decrease in the dopamine content of the neostriatum on the side of the lesion. Animals with this lesion develop postural and motor asymmetries which are altered by drugs which affect dopaminergic activity. Amphetamine, which releases dopmine and norepinephrine from catecholaminergic neurons, causes these rats to rotate unidirectionally toward the side of the lesion. Since there is a much larger amount of dopamine to be released by amphetamine from the intact nigrostriatal neurons on the non-lesioned side than from those remaining on the lesioned side, the rotational behavior is apparently due to the preponderance of activation of striatal dopamine receptors on the intact side. The ability of a drug to antagonize the rotational behavior is therefore a measure of its ability to block striatal dopamine receptors and is indicative of its potential to produce EPS.
as §1

[3] = test system: shock avoidance acquisition in the rat; experiment: Antagonism of shock avoidance acquisition in the rat (antipsychotic activity); assay type: in vivo; settings: ip, read-out: Antagonism of Avoidance Acquisition, Rats, ED50 (A)
Method: as §1

[4] = ratio of i.p. ED50 values in rats, clinically established antipsychotics (Table I)
[5] = clinically established antipsychotics (Table I)
[6] = ratio of i.p. ED50 values in rats, piperidylidene derivatives (Table II)
[7] = piperidylidene derivatives (Table II)
[8] = rats, i.p., piperidylidene derivatives (Table II)

Row | Compound | R/A ratio [1, 4] | Antagonism of Amphetamine-induced Rotation, Rats, ED50 (R) [2, 5] | R/A ratio [1, 6] | ED50 [3] | Antagonism of Amphetamine-induced Rotation, Rats, ED50 (R) [2, 7] | ED50 [3, 8] | R/A ratio ([1]; rat, in vivo, ip)
1 | CN(C)CCCN1c2ccccc2Sc2ccc(Cl)cc21 [Chlorpromazine, reference compound] | 1.3 | 2.0 mg/kg |  |  |  |  | 
2 | O=C(CCCN1CCC(O)(c2ccc(Cl)cc2)CC1)c1ccc(F)cc1 [Haloperidol, reference compound] | 0.31 | 0.05 mg/kg |  |  |  |  | 
3 | CN1CCC(=C2c3ccccc3Sc3ccc(Cl)cc32)CC1 [I, 4-(2-chloro-9-thioxanthenylidene)-1-methylpiperidine] |  |  | 20.3 | 0.7 mg/kg | 14.2 mg/kg |  | 
4 | CSc1ccc2c(c1)C(=C1CCN(C)CC1)c1ccccc1S2 [II, 1-methyl-4-(2-methylthio-9-thioxanthenylidene)-piperidine] |  |  | 18.5 | 0.2 mg/kg | 3.7 mg/kg |  | 
5 | CN1CCC(=C2c3ccccc3Sc3cc(Cl)ccc32)CC1 [III, 4-(3-chloro-9-thioxanthenylidene)-1-methylpiperidine] |  |  | 5.8 |  | 30.8 mg/kg | 5.3 mg/kg | 
6 | CN1CCC(=C2c3ccccc3Oc3ccc(Cl)cc32)CC1 [IV, 4-(2-chloro-9-xanthenylidene)-1-methylpiperidine] |  |  | 12.2 |  | 2.8 mg/kg | 0.23 mg/kg | 
7 | OCCN1CCC(=C2c3ccccc3Sc3ccc(Cl)cc32)CC1 [IX, 4-(2-chloro-9-thioxanthenylidene)-1-(β-hydroxyethyl)piperidine] |  |  | 4.7 |  | 1.22 mg/kg | 0.26 mg/kg | 
8 | O=c1[nH]c2ccccc2n1C1CCN(CCCC(c2ccc(F)cc2)c2ccc(F)cc2)CC1 [Pimozide, reference compound] | 0.30 | 0.08 mg/kg |  |  |  |  | 
9 | CN1CCN(CCCN2c3ccccc3Sc3ccc(C(F)(F)F)cc32)CC1 [Trifluoperazine, reference compound] | 0.46 |  |  |  |  |  | 
10 | CSc1ccc2c(c1)C(=C1CCN(C)CC1)c1ccccc1O2 [V, 1-methyl-4-(2-methylthio-9-xanthenylidene)piperidine] |  |  | 3.0 |  | 1.8 mg/kg | 0.6 mg/kg | 
11 | CN1CCC(=C2c3ccccc3Oc3ccc(C(F)(F)F)cc32)CC1 [VI, 1-methyl-4-(2-trifluoromethyl-9-xanthenylidene)-piperidine] |  |  | 3.7 |  | 0.26 mg/kg | 0.07 mg/kg | 
12 | CN1CCC(=C2c3ccccc3COc3ccc(Cl)cc32)CC1 [VII, 4-(2-chloro-11(6H)-dibenz[b,e]oxepinylidene)-1-methylpiperidine] |  |  | 5.5 |  | 9.4 mg/kg | 1.7 mg/kg | 
13 | CN1CCC(=C2c3ccccc3Oc3ccc(F)cc32)CC1 [VIII, 4-(2-fluoro-9-xanthenylidene)-1-methylpiperidine] |  |  | 7.9 |  | 5.6 mg/kg | 0.71 mg/kg | 
14 | CN1CCC(=C2c3ccccc3Oc3ccc(Br)cc32)CC1 [X, 4-(2-bromo-9-xanthenylidene)-1-methylpiperidine] |  |  | 5.3 |  | 1.6 mg/kg | 0.3 mg/kg | 
15 | CN1CCC(=C2c3ccccc3Oc3ccc(C#N)cc32)CC1 [XI, 4-(2-cyano-9-xanthenylidene)-1-methylpiperidine] |  |  | 3.2 |  | 0.29 mg/kg | 0.09 mg/kg | 
16 | CN1CCC(=C2c3ccccc3Sc3ccc(F)cc32)CC1 [XII, 4-(2-fluoro-9-thioxanthenylidene)-1-methylpiperidine] |  |  | 3.1 |  | 5.5 mg/kg | 1.8 mg/kg | 
17 | CN1CCC(=C2c3ccccc3Sc3cc(F)ccc32)CC1 [XIII, 4-(3-fluoro-9-thioxanthenylidene)-1-methylpiperidine] |  |  | 5.8 |  | 17.7 mg/kg | 3 mg/kg | 
18 | CN1CCC(=C2c3ccccc3Sc3ccc(Br)cc32)CC1 [XIV, 4-(2-bromo-9-thioxanthenylidene)-1-methylpiperidine] |  |  | 9.0 |  | 2.7 mg/kg | 0.3 mg/kg | 

Row | Compound | R/A ratio [1, 4] | Antagonism of Amphetamine-induced Rotation, Rats, ED50 (R) [2, 5] | R/A ratio [1, 6] | ED50 [3] | Antagonism of Amphetamine-induced Rotation, Rats, ED50 (R) [2, 7] | ED50 [3, 8] | R/A ratio ([1]; rat, in vivo, ip)
19 | Clc1ccc2c(c1)C(=C1CCN(CC3CCC3)CC1)c1ccccc1S2 [XIX, 4-(2-chloro-9-thioxanthenylidene)-1-cyclobutylmethylpiperidine] |  |  |  |  | 1.9 mg/kg | 0.5 mg/kg | 3.8
20 | CN1CCC(=C2c3ccc(Cl)cc3Sc3ccc(F)cc32)CC1 [XV, 4-(6-chloro-2-fluoro-9-thioxanthenylidene)-1-methylpiperidine] |  |  | 14.5 |  | 8.7 mg/kg | 0.6 mg/kg | 
21 | CN1CCC(=C2c3ccc(Cl)cc3Oc3ccc(F)cc32)CC1 [XVI, 4-(6-chloro-2-fluoro-9-xanthenylidene)-1-methylpiperidine] |  |  | 7.5 |  | 1.12 mg/kg | 0.15 mg/kg | 
22 | CCN1CCC(=C2c3ccccc3Sc3ccc(Cl)cc32)CC1 [XVII, 4-(2-chloro-9-thioxanthenylidene)-1-ethylpiperidine] |  |  | 10.0 |  | 5.0 mg/kg | 0.5 mg/kg | 
23 | CCCCN1CCC(=C2c3ccccc3Sc3ccc(Cl)cc32)CC1 [XVIII, 4-(2-chloro-9-thioxanthenylidene)-1-n-butylpiperidine] |  |  | 3.3 |  | 3.1 mg/kg | 0.94 mg/kg | 
24 | Clc1ccc2c(c1)C(=C1CCNCC1)c1ccccc1O2 [XX, 4-(2-chloro-9-xanthenylidene)-piperidine] |  |  | 4.8 |  | 8.1 mg/kg | 1.7 mg/kg | 
25 | CCN1CCC(=C2c3ccccc3Oc3ccc(Cl)cc32)CC1 [XXI, 4-(2-chloro-9-xanthenylidene)-1-ethylpiperidine] |  |  | 3.6 |  | 1.8 mg/kg | 0.5 mg/kg | 
26 | OCCN1CCC(=C2c3ccccc3Oc3ccc(Cl)cc32)CC1 [XXII, 4-(2-chloro-9-xanthenylidene)-1-(β-hydroxyethyl)-piperidine] |  |  | 6.5 |  | 1.3 mg/kg | 0.2 mg/kg | 
27 | CCCN1CCC(=C2c3ccccc3Oc3ccc(Cl)cc32)CC1 [XXIII, 4-(2-chloro-9-xanthenylidene)-1-n-propylpiperidine] |  |  | 4.0 |  | 2.4 mg/kg | 0.6 mg/kg | 
28 | Clc1ccc2c(c1)C(=C1CCN(CC3CCC3)CC1)c1ccccc1O2 [XXIV, 4-(2-chloro-9-xanthenylidene)-1-cyclobutylmethylpiperidine] |  |  | 3.2 |  | 1.6 mg/kg | 0.5 mg/kg | 
29 | CN1CCC(=C2c3ccc(F)cc3Sc3ccc(F)cc32)CC1 [XXIX, 4-(2,6-difluoro-9-thioxanthenylidene)-1-methylpiperidine] |  |  | 4.8 |  | 2.4 mg/kg | 0.5 mg/kg | 
30 | Brc1ccc2c(c1)C(=C1CCNCC1)c1ccccc1O2 [XXV, 4-(2-bromo-9-xanthenylidene)-piperidine] |  |  | 6.7 |  | 4.0 mg/kg | 0.6 mg/kg | 
31 | OCCN1CCC(=C2c3ccccc3Oc3ccc(Br)cc32)CC1 [XXVI, 4-(2-bromo-9-xanthenylidene)-1-(β-hydroxyethyl)-piperidine] |  |  | 3.5 |  | 2.1 mg/kg | 0.6 mg/kg | 
32 | CN1CCC(=C2c3cc(Cl)ccc3COc3ccccc32)CC1 [XXVII, 4-(9-chloro-11(6H)-dibenz[b,e]oxepinylidene)-1-methylpiperidine] |  |  | > 15 |  | > 24 mg/kg | 1.6 mg/kg | 
33 | CN1CCC(=C2c3ccccc3Sc3ccc(C#N)cc32)CC1 [XXVIII, 4-(2-cyano-9-thioxanthenylidene)-1-methylpiperidine] |  |  | 4.0 |  | 0.67 mg/kg | 0.16 mg/kg | 
34 | OCCCN1CCC(=C2c3ccccc3Oc3ccc(Cl)cc32)CC1 [XXX, 4-(2-chloro-9-xanthenylidene)-1-(3-hydroxypropyl)-piperidine] |  |  | 3.9 |  | 0.78 mg/kg | 0.2 mg/kg | 
35 | CCCCN1CCC(=C2c3ccccc3Oc3ccc(C(F)(F)F)cc32)CC1 [XXXI, 4-(2-trifluoromethyl-9-xanthenylidene)-1-n-butylpiperidine] |  |  | 10 |  | 1 mg/kg | 0.1 mg/kg | 
